For one data set, the system named is Male CD1 mice. Put plainly: Anticonvulsant activity against pentylenetetrazole (PTZ) induced seizures. Type of data set: in vivo. The settings on record: for % Clonic: incidence of clonic seizures; for % Tonic: incidence of tonic seizures. The protocol:
The amount of test compound needed to prevent convulsions induced by a fixed amount of pentylenetetrazol can then be determined.
(A) Male CD1 mice (Charles River) are randomly divided into groups of at least 20, and treated with 500 µg/Kg of (S,RS)-2,6-dimethyl-3-carbomethoxy-4-(3-nitrophenyl)-5-(3-[4-(2-tetrahydropyran-2-yloxyethyl)-phenoxy]propoxycarbonyl)-1,4-dihydropyridine (the compound is dissolved in 0.1 mL of ethanol and diluted with 99.9 mL saline and injected intraperitoneally) before subcutaneous administration of 100 mg/Kg pentylenetetrazole ("PTZ", a known convulsant) under the following dosing schedules: (A) 15 minutes prior to PTZ administration; (B) 60 minutes prior to PTZ administration; and (C) b.i.d. for three days prior to PTZ administration, a further dose being given on a fourth day 15 minutes prior to PTZ administration. After PTZ administration, the mice are observed for at least 30 minutes, and the incidence of clonic seizures, tonic seizures, and death is noted. The experiment is terminated by pentobarbitone overdose.

The next data set concerns dogs. Briefly: Toxicology: three-month oral dosing. Type of data set: in vivo.
Data set [1] deals with CA₁ pyramidal cells in the hippocampus. Briefly: Neuroprotection from ischemic damage: delayed neuronal death after bilateral carotid occlusion. The class given is in vivo, Mongolian gerbils. The settings on record: then B.I.D. three days post-ischemia. The protocol: This experimental test is described in the literature by Kirino, T. Brain Research, 239, 57-69 (1982). A detailed description is set forth in Example 3.
Mongolian gerbils of either sex (50-80 g) are treated with a test compound (or control) either intraperitoneally (IP) at 500 mg/kg 15 minutes prior to induction of ischemia followed by B.I.D. dosing for three days post-ischemia, or orally at 5 mg/kg twice daily for 3 out of 4 days and then 15 minutes prior to cerebral ischemia on the 4th day followed by B.I.D. dosing for three days post-ischemia. To facilitate induction of forebrain ischemia the animals are then anesthetized with halothane (5% in 30:70 oxygen:nitrous oxide) delivered by face mask. Following rapid induction, the halothane is decreased to 1.5-2% and maintained at that level for the remainder of the experiment. The left and right common carotid arteries are exposed in the paratracheal region through a ventral midline cervical skin incision and freed from the accompanying vagosympathetic nerve trunks. A loose ligature is placed around the arteries to facilitate identification at the time of occlusion.
The carotid arteries are then bilaterally occluded for 5 minutes using microvascular clips (Ackland C-2-V, Weiss, London). Blood flow is then restored, the wound dusted with antibiotic powder (Cicatrin, Calmic Medical Division, The Wellcome Foundation Ltd., London), and sutured. The subjects are then caged individually and allowed food and water ad libitum. […]
The extent of neuronal death is determined by counting microscopically (at 40x power) all normal and abnormal cells in five fields per hemisphere of the hippocampal CA₁ subfield from the paramedian area to its junction with CA₂ neurons. The field counts are then summed and the mean percentage of dead cells calculated (n=10 fields per brain). Statistical significance was calculated using the Student's t test for unpaired samples, with significance taken at p less than 0.05.

Setting [2] is: schedule A: 500 µg/Kg intraperitoneally 15 minutes prior to PTZ 100 mg/Kg s.c.
The mark [3] stands for this setting: schedule B: 500 µg/Kg intraperitoneally 60 minutes prior to PTZ 100 mg/Kg s.c.
Where [4] appears, read: schedule C: 500 µg/Kg intraperitoneally b.i.d. for three days, further dose on fourth day 15 minutes prior to PTZ 100 mg/Kg s.c.

Marks after values point to notes of the source that are not given here.

On to `COC(=O)C1=C(C)NC(C)=C(C(=O)OCCCOc2ccc(CCOC3CCCCO3)cc2)[C@H]1c1cccc([N+](=O)[O-])c1` (mixture of isomers) [X, (S,RS)-2,6-dimethyl-3-carbomethoxy-4-(3-nitrophenyl)-5-[3-(4-[2-(tetrahydropyran-2-yloxy)ethyl]phenoxy)propoxycarbonyl]-1,4-dihydropyridine], for which, in the data set on Male CD1 mice (PTZ test in mice, statement in words), the anticonvulsant activity result was “demonstrates anticonvulsant activity”. Further, the “% Death” value with Male CD1 mice (setting [2]) is listed as 38.1* %; in the data set with Male CD1 mice (setting [3]), 35* %; in the data set with Male CD1 mice (setting [4]), 60%. Moreover, the “% Clonic” value in the data set on Male CD1 mice (setting [2]) is given as 90.5%; in the data set on Male CD1 mice (setting [3]) it was 80%; with Male CD1 mice (setting [4]), 65** %. Also, the results for the “% Tonic” value in the data set with Male CD1 mice (setting [2]), in the data set on Male CD1 mice (setting [3]) and with Male CD1 mice (setting [4]) were 90.5%, 40*** % and 55%, respectively. Also, the pathological change result in the data set with dogs (oral dosing of dogs for three months at 1.5 and 10 mg/kg/day) is on record as “did not produce any pathological change”. Also, the urine analysis entry in the data set on dogs (oral dosing of dogs for three months, all doses) is recorded as “normal”. In addition, in the data set on dogs (oral dosing of dogs for three months, all doses, throughout the study), the Ophthalmoscopy entry was “remained normal”. For the same compound, the “Percentage abnormal neurone count” value came out at 6.6 ± 0.8% in data set [1] (intraperitoneal administration, PEG 300 + water, 500 mg/kg 15 minutes prior to ischemia, 5 minutes occlusion, counted at 72 hours); 5.6 ± 0.3% in data set [1] (intraperitoneal administration, alcoholic vehicle, 500 mg/kg 15 minutes prior to ischemia, 5 minutes occlusion, counted at 72 hours); 58.0 ± 5.0% in data set [1] (oral, PEG 300 + vehicle, 5 mg/kg twice daily 3 out of 4 days, 15 minutes prior to ischemia on 4th day).

These data come from patent publication EP0320006A2, “Uses of 1,4-dihydropyridines” (LABORATOIRES SYNTEX, priority 1987, dated 1989).
